Converted amounts (≈) assume the structure as drawn. Where a SMILES comes first, the peptide text is derived from it. Bridges are numbered along the chain shown (N, C = ends). [ ]: non-standard residue; d: D form. The star is where a group is joined. Ileψ(thiazoline)Cys = CC[C@H](C)[C@H](N)C1=N[C@H](C(=O)*)CS1; dOrn = NCCC[C@@H](N)C(=O)O
Legend:
[1] = tested on: Enterococcus faecalis; experiment: Antibacterial activity against Enterococcus faecalis ATCC 29212 incubated for 18 hrs by CLSI based broth dilution method; assay type: functional
[2] = tested on: Acinetobacter baumannii; experiment: Antibacterial activity against Acinetobacter baumannii ATCC 19606 incubated for 18 hrs by CLSI based broth dilution method; assay type: functional; settings: ATCC 19606 = CIP 70.34 = JCM 6841
[3] = Cytotoxicity against human glomerular mesangial cells incubated for 12 hrs by MTT assay; assay type: cell-based; settings: Glomerular mesangial cell
[4] = tested on: Staphylococcus aureus; experiment: Antibacterial activity against Staphylococcus aureus ATCC 25923 incubated for 18 hrs by CLSI based broth dilution method; assay type: functional
[5] = Selectivity ratio of MHC10 for BALB/C mouse erythrocytes to MIC for fungi; assay type: toxicity
[6] = tested on: Pseudomonas aeruginosa; experiment: Antibacterial activity against Pseudomonas aeruginosa ATCC 27853 incubated for 18 hrs by CLSI based broth dilution method; assay type: functional
[7] = tested on: Fungi; experiment: Antibacterial activity against fungi incubated for 18 hrs by CLSI based broth dilution method; assay type: functional
[8] = tested on: Klebsiella pneumoniae; experiment: Antibacterial activity against Klebsiella pneumoniae ATCC 700603 incubated for 18 hrs by CLSI based broth dilution method; assay type: functional
[9] = tested on: Bacillus subtilis; experiment: Antibacterial activity against Bacillus subtilis ATCC 23857 incubated for 18 hrs by CLSI based broth dilution method; assay type: functional
[10] = tested on: Bacteria; experiment: Antibacterial activity against Gram-negative bacteria incubated for 18 hrs by CLSI based broth dilution method; assay type: functional
[11] = tested on: Bacteria; experiment: Antibacterial activity against bacteria incubated for 18 hrs by CLSI based broth dilution method; assay type: functional
[12] = tested on: Bacteria; experiment: Antibacterial activity against Gram-positive bacteria incubated for 18 hrs by CLSI based broth dilution method; assay type: functional
[13] = tested on: Staphylococcus epidermidis; experiment: Antibacterial activity against Staphylococcus epidermidis ATCC 12228 incubated for 18 hrs by CLSI based broth dilution method; assay type: functional
[14] = Selectivity ratio of MHC10 for BALB/C mouse erythrocytes to MIC for gram positive bacteria; assay type: toxicity
[15] = Selectivity ratio of MHC10 for BALB/C mouse erythrocytes to MIC for gram-negative bacteria; assay type: toxicity
[16] = Selectivity ratio of MHC10 for BALB/C mouse erythrocytes to MIC for bacteria; assay type: toxicity
[17] = tested on: Escherichia coli; experiment: Antibacterial activity against Escherichia coli ATCC 25922 incubated for 18 hrs by CLSI based broth dilution method; assay type: functional
[18] = tested on: Erythrocyte; experiment: Hemolytic activity in BALB/C mouse erythrocytes incubated for 1 hr by absorbance method; assay type: ADME, cell-based

MIC [1] | MIC [2] | MIC [4] | MIC [6] | MIC [7] | MIC [8] | MIC [9] | MIC [10] | MIC [11] | MIC [12] | MIC [13] | MIC [17] | Compound | IC50 [3] | selectivity ratio [5] | selectivity ratio at 18 h [14] | selectivity ratio [15] | selectivity ratio [16] | MHC10 [18]
< 1 µM | < 1 µM | < 1 µM | < 1 µM |  | < 1 µM | < 1 µM |  |  |  | < 1 µM | < 1 µM | C[C@@H](O)[C@H]1C(=O)N2C(C(=O)O)=C(SCCNC=N)C[C@H]12 [IMIPENEM ANHYDROUS] |  |  |  |  |  | 
4 µM (≈ 1.34 µg/mL) | 128 µM (≈ 42.8 µg/mL) | < 1 µM | 64 µM (≈ 21.4 µg/mL) |  | ≥ 512 µM | < 1 µM |  |  |  | 16 µM (≈ 5.35 µg/mL) | 64 µM (≈ 21.4 µg/mL) | CC1(C)S[C@@H]2[C@H](NC(=O)Cc3ccccc3)C(=O)N2[C@H]1C(=O)O [PENICILLIN G] |  |  |  |  |  | 
4 µM (≈ 1.53 µg/mL) | < 1 µM | < 1 µM | < 1 µM |  | < 1 µM | < 1 µM |  |  |  | < 1 µM | < 1 µM | C[C@@H](O)[C@H]1C(=O)N2C(C(=O)O)=C(S[C@@H]3CN[C@H](C(=O)N(C)C)C3)[C@H](C)[C@H]12 [MEROPENEM] |  |  |  |  |  | 

More lines, now with the values behind:

Compound | MIC [1] | MIC [2] | MIC [4] | MIC [6] | MIC [7] | MIC [8] | MIC [9] | MIC [10] | MIC [11] | MIC [12] | MIC [13] | MIC [17] | IC50 [3] | selectivity ratio [5] | selectivity ratio at 18 h [14] | selectivity ratio [15] | selectivity ratio [16] | MHC10 [18]
CC[C@H](C)[C@H](NC(=O)CN)C(=O)N[C@@H](CCCNC(=N)N)C(=O)N[C@@H](Cc1c[nH]c2ccccc12)C(=O)N[C@@H](CCCCN)C(=O)N[C@@H](Cc1ccccc1)C(=O)N[C@@H](Cc1c[nH]c2ccccc12)C(=O)N[C@@H](CCCCN)C(=O)N[C@@H](Cc1ccccc1)C(=O)N[C@H](C(N)=O)[C@@H](C)O (H-GIRWKFWKFT-NH2) | 128 µM (≈ 175 µg/mL) | 128 µM (≈ 175 µg/mL) | 32 µM (≈ 43.8 µg/mL) | 32 µM (≈ 43.8 µg/mL) | 58.7 µM (≈ 80.3 µg/mL) | 64 µM (≈ 87.5 µg/mL) | 64 µM (≈ 87.5 µg/mL) | 45.3 µM (≈ 62 µg/mL) | 58.7 µM (≈ 80.3 µg/mL) | 76.1 µM (≈ 104 µg/mL) | 128 µM (≈ 175 µg/mL) | 32 µM (≈ 43.8 µg/mL) | ≥ 512 µM | 8.72 | 6.73 | 11.3 | 8.72 | >= 512 uM
C[C@@H](O)[C@H](NC(=O)[C@H](CCCCN)NC(=O)[C@H](Cc1c[nH]c2ccccc12)NC(=O)[C@H](CCCNC(=N)N)NC(=O)[C@H](CCCCN)NC(=O)[C@H](Cc1c[nH]c2ccccc12)NC(=O)[C@H](Cc1c[nH]c2ccccc12)NC(=O)CN)C(=O)N[C@@H](Cc1c[nH]c2ccccc12)C(=O)N[C@@H](Cc1c[nH]c2ccccc12)C(N)=O (H-GWWKRWKTWW-NH2) | 16 µM (≈ 24.3 µg/mL) | 16 µM (≈ 24.3 µg/mL) | 8 µM (≈ 12.2 µg/mL) | 16 µM (≈ 24.3 µg/mL) | 9.51 µM (≈ 14.4 µg/mL) | 16 µM (≈ 24.3 µg/mL) | 4 µM (≈ 6.08 µg/mL) | 13.5 µM (≈ 20.5 µg/mL) | 9.51 µM (≈ 14.4 µg/mL) | 6.7 µM (≈ 10.2 µg/mL) | 4 µM (≈ 6.08 µg/mL) | 16 µM (≈ 24.3 µg/mL) | 49.5 µM | 4.29 | 6.09 | 3.02 | 4.29 | 40.79 µM
CC[C@H](C)[C@H](N)C1=N[C@H](C(=O)N[C@@H](CC(C)C)C(=O)N[C@H](CCC(=O)O)C(=O)N[C@H](C(=O)N[C@H]2CCCCNC(=O)[C@H](CC(N)=O)NC(=O)[C@@H](CC(=O)O)NC(=O)[C@H](Cc3cnc[nH]3)NC(=O)[C@@H](Cc3ccccc3)NC(=O)[C@H]([C@@H](C)CC)NC(=O)[C@@H](CCCN)NC2=O)[C@@H](C)CC)CS1 [BACITRACIN] ({Ileψ(thiazoline)Cys}-L[dE]IK[dOrn]I[dF]H[dD]N; lactam 4-C) | 32 µM (≈ 45.5 µg/mL) | ≥ 128 µM | 16 µM (≈ 22.8 µg/mL) | ≥ 512 µM |  | ≥ 512 µM | ≥ 512 µM |  |  |  | 8 µM (≈ 11.4 µg/mL) | ≥ 512 µM |  |  |  |  |  | 
CN[C@@H]1[C@H](O[C@H]2[C@H](O[C@H]3[C@H](O)[C@@H](O)[C@H](N=C(N)N)[C@@H](O)[C@@H]3N=C(N)N)O[C@@H](C)[C@]2(O)C=O)O[C@@H](CO)[C@H](O)[C@H]1O [STREPTOMYCIN] | 16 µM (≈ 9.31 µg/mL) | 2 µM (≈ 1.16 µg/mL) | < 1 µM | 4 µM (≈ 2.33 µg/mL) |  | < 1 µM | 2 µM (≈ 1.16 µg/mL) |  |  |  | 32 µM (≈ 18.6 µg/mL) | 4 µM (≈ 2.33 µg/mL) |  |  |  |  |  | 

From ChEMBL document CHEMBL4823282, “Novel Broad-Spectrum Antimicrobial Peptide Derived from Anoplin and Its Activity on Bacterial Pneumonia in Mice” (J Med Chem, 2021)
